Results as given in patent US20130085304A1, “PROCESSES FOR PREPARATION OF POLYMORPHIC FORMS OF LACOSAMIDE” (priority 2009, published 2013).

Legend:
[1] = Effect of time on stability of polymorphic form; assay type: physicochemical
Experimental: Polymorphic Form A of lacosamide was kept at 0° C. to 5° C. for 3 months.
Polymorphic Form B of lacosamide was kept at 0° C. to 5° C. for 7 months.

[2] = Solubility of polymorphic Form A and Form B in de-ionized water
Experimental: Lacosamide polymorphic Forms A and B were tested for solubility studies by dissolving the Form A or Form B in de-ionized water.

[3] = Drying of Example 3 wet mass at rising temperatures, polymorph checked by XRD; assay type: physicochemical; details: for Product characterized (based on XRD thereof) as: 6 hours
Experimental: Lacosamide (20 g) was added to ethyl acetate (120 ml) at ambient temperature and heated at 75° C. to 80° C. This was cooled to ambient temperature in 1 hour and then filtered. […] The wet mass was dried at the following temperatures each for the specified time and analyzed.

Compound | Polymorphic form on reanalysis after storage ([1]; kept at 0° C. to 5° C. for 7 months) | Polymorphic form on reanalysis after storage ([1]; kept at 0° C. to 5° C. for 3 months) | Solubility status in de-ionized water (1 in 45 parts) [2] | Product characterized (based on XRD thereof) as ([3]; Example 3 wet mass dried at 35-40 °C) | Product characterized (based on XRD thereof) as ([3]; Example 3 wet mass dried at 40-45 °C) | Product characterized (based on XRD thereof) as ([3]; Example 3 wet mass dried at 45-50 °C) | Product characterized (based on XRD thereof) as ([3]; Example 3 wet mass dried at 50-55 °C) | Product characterized (based on XRD thereof) as ([3]; Example 3 wet mass dried at 55-60 °C) | Product characterized (based on XRD thereof) as ([3]; Example 3 wet mass dried at 60-65 °C) | Change in polymorph pattern on heating ([3]; heated for 36 hours in the temperature range of 35° C. to 65° C.)
COC[C@@H](NC(C)=O)C(=O)NCc1ccccc1 [Form B, (R)-2-acetamido-N-benzyl-3-methoxypropionamide] | characterized as Form B |  |  |  |  |  |  |  |  | 
COC[C@@H](NC(C)=O)C(=O)NCc1ccccc1 [Form A, (R)-2-acetamido-N-benzyl-3-methoxypropionamide] |  | characterized as Form A | Sparingly soluble | Crystalline Form A | Crystalline Form A | Crystalline Form A | Crystalline Form A | Crystalline Form A | Crystalline Form A | no change in polymorph pattern
